# In paper PMC4286194 (Biochemical Journal, 2015):
# Key:
# Test in all cases: Kinase profiling
# Assay type in all cases: biochemical
# CSK = CSK (Homo sapiens, UniProt P41240)
# HIPK3 = HIPK3 (Homo sapiens, UniProt Q9H422)
# IKK epsilon = target: T1, IKK epsilon (Homo sapiens, UniProt Q14164)
# T1 sequence (Q14164 1-716): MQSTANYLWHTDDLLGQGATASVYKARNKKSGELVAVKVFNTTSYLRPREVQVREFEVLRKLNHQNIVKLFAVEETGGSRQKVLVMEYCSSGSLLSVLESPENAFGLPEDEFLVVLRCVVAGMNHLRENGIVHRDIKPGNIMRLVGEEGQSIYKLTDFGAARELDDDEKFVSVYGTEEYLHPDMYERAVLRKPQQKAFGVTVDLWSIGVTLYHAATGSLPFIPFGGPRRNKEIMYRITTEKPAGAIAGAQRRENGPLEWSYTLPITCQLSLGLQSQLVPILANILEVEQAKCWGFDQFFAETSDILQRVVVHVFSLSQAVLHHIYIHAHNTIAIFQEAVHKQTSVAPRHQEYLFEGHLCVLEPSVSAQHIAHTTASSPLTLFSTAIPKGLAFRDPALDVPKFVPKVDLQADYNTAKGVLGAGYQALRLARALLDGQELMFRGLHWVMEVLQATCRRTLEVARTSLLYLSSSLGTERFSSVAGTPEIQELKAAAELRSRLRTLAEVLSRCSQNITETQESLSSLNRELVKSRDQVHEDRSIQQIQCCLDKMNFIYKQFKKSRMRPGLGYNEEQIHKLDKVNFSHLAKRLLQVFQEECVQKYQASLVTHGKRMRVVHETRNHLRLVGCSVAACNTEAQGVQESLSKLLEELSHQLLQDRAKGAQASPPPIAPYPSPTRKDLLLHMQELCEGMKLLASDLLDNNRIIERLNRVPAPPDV
# PKC gamma = PKC gamma (Homo sapiens, UniProt P05129)
# PRAK = target: T2, PRAK (Homo sapiens, UniProt Q8IW41)
# T2 sequence (Q8IW41 1-473): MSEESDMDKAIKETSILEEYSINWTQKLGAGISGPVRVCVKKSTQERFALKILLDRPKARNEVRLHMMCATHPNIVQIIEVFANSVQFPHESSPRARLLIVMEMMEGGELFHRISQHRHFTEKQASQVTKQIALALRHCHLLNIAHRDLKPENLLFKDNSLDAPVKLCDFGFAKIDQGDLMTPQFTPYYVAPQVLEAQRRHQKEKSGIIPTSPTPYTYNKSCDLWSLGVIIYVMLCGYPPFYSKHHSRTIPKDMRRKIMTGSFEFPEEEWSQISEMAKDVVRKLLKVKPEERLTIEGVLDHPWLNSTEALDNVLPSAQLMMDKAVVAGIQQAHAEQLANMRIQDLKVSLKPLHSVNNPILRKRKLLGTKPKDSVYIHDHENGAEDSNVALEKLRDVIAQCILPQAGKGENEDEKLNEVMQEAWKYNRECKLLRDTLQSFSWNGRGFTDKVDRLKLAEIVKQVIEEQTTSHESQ
# ZAP70 = target: T3, ZAP70 (Homo sapiens, UniProt P43403)
# T3 sequence (P43403 1-619): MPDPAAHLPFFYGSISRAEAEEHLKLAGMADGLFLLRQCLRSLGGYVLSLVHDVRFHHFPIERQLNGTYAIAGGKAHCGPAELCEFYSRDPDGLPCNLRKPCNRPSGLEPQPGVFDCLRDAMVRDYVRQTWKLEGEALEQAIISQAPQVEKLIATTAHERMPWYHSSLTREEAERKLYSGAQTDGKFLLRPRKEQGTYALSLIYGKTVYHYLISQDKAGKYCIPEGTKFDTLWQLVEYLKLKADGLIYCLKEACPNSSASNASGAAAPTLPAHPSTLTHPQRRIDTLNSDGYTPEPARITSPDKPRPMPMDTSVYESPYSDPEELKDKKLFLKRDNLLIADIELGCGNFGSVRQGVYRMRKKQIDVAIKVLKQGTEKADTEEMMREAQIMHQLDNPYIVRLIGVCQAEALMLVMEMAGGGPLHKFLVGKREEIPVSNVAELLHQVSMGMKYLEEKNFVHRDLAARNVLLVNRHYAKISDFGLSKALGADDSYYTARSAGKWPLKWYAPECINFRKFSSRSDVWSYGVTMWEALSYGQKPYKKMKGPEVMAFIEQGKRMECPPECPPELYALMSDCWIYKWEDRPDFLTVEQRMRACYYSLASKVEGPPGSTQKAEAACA
# Sequence of CSK (P41240 whole entry): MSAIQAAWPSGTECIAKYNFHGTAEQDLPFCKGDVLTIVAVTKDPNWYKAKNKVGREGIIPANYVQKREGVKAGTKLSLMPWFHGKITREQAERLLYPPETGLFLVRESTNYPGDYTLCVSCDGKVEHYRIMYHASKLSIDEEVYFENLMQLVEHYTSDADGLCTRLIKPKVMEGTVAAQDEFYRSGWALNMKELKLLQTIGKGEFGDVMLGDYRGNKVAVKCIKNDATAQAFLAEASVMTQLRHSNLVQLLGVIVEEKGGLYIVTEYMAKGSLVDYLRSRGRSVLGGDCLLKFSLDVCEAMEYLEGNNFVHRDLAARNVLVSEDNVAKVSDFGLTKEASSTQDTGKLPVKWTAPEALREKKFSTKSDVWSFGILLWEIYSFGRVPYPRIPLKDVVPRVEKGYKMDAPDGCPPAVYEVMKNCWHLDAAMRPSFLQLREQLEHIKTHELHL
# Sequence of HIPK3 (Q9H422 whole entry): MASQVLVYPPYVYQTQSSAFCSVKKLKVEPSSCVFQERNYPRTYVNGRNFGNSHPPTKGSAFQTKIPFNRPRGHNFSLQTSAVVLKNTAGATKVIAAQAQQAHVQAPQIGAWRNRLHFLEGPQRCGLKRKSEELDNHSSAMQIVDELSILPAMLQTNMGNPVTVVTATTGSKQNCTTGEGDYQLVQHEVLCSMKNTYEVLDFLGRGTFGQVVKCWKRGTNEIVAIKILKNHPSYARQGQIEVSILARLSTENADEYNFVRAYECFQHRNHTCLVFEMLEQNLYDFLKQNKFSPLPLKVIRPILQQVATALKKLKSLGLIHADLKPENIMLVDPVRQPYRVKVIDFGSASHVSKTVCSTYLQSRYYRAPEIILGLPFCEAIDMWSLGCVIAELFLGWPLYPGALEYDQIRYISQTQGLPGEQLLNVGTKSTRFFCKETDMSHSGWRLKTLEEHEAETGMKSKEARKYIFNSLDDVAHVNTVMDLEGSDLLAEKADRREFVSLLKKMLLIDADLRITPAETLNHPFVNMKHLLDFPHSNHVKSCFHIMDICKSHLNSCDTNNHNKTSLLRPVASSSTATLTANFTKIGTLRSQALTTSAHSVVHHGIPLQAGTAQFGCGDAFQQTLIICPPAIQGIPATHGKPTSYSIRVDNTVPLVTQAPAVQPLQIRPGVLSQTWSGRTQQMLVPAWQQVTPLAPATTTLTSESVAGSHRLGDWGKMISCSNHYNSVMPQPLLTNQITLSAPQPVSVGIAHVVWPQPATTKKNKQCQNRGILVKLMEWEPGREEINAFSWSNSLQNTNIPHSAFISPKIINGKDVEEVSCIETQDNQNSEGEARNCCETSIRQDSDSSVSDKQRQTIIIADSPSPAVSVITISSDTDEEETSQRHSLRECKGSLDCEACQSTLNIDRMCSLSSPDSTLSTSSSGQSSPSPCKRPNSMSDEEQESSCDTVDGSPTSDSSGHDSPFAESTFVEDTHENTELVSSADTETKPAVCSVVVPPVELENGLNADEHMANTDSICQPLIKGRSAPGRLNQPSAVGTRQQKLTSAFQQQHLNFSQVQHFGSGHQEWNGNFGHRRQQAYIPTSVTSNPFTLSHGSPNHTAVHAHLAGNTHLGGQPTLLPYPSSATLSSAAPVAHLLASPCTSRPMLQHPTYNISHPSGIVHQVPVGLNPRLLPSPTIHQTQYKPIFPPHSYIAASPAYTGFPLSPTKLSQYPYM
SMILES,remaining activity at 0.1 µM (CSK),remaining activity at 1 µM (CSK),remaining activity at 0.1 µM (HIPK3; 0.1 µM),remaining activity at 1 µM (HIPK3),remaining activity at 0.1 µM (IKK epsilon),remaining activity at 1 µM (IKK epsilon),remaining activity at 0.1 µM (PKC gamma),remaining activity at 1 µM (PKC gamma),remaining activity at 0.1 µM (PRAK),remaining activity at 1 µM (PRAK),remaining activity at 0.1 µM (ZAP70),remaining activity at 1 µM (ZAP70)
Cc1nc(Nc2ncc(C(=O)Nc3c(C)cccc3Cl)s2)cc(N2CCN(CCO)CC2)n1 [Dasatinib],97 ± 19%,8 ± 3%,102 ± 3%,113 ± 7%,102 ± 5%,123 ± 13%,107 ± 22%,114 ± 22%,129 ± 14%,128 ± 7%,109 ± 1%,121 ± 27%
"COc1cc(Nc2c(C#N)cnc3cc(OCCCN4CCN(C)CC4)c(OC)cc23)c(Cl)cc1Cl [Bosutinib, bosutinib]",65 ± 7%,4%,–,66 ± 5%,46 ± 7%,6%,88 ± 6%,102 ± 5%,97 ± 2%,125 ± 1%,99 ± 4%,109 ± 18%
